Reference: paper PMC4768256, “Using mutagenesis to explore conserved residues in the RNA-binding groove of influenza A virus nucleoprotein for antiviral drug development” (Scientific Reports, 2016)

Target: T1, NP (nucleoprotein of influenza A virus H1N1, full-length wild type) (Influenza A virus (A/Nanchang/11/1996(H1N1)), UniProt Q07FI1)
T1 construct: full-length (498 aa), N-terminal 6xHis-tag as printed, pET21b NdeI/XhoI, E. coli, Ni-NTA, RNase-treated lysate
Format: binding

T1 sequence (Q07FI1 whole entry): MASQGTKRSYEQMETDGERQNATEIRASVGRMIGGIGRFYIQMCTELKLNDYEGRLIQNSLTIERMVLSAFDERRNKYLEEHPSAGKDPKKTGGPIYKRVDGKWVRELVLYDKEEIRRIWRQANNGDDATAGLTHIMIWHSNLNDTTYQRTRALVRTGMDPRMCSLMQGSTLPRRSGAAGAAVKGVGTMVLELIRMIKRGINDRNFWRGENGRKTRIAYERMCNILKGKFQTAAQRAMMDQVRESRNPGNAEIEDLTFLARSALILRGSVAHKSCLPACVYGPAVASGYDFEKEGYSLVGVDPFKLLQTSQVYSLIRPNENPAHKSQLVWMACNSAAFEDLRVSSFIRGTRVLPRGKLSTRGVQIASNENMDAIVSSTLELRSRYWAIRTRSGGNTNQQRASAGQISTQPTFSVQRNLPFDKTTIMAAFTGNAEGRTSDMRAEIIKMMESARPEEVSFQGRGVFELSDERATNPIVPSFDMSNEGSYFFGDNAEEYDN

COc1cc(/C=C/C(=O)CC(=O)/C=C/c2ccc(O)c(OC)c2)ccc1O [H7, (E,E)-1,7-bis(4-hydroxy-3-methoxyphenyl)-1,6-heptadiene-3,5-dione]
Kd: 1220 nM
